In general, inhibition refers to the percentage by which the read-out fell short of the control.

Structures can show the parent of a compound that is named as a salt.

This note sets out measurements from US8063071B2 (GlaxoSmithKline, LLC, priority 2007, dated 2011).

Assay [1] has as its system human monocyte stimulated cytokine production (TNF-α). Nature of the assay: Monocyte assay (LPS-stimulated TNF-α production). Format: cell-based. As to conditions: for IC50: 24 h, 200 ng/mL LPS, TNF-α by ELISA; for inhibition at 0.3 µM: read-out: inhibition at 300 nM in the monocyte assay. In a few lines: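 Human CD14+ monocytes were purified from blood and plated at 1×10^6 cells/mL in RPMI 1640 with 10% FBS. Compound was added 30 min before stimulation with 200 ng/mL LPS (0.1% DMSO final), followed by 24 hrs at 37 C. Supernatant TNF-α was measured by ELISA, and viability by trypan blue exclusion.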
A general note: In an ELISA, binding on a coated surface is turned into a signal by an enzyme label.

For assay [2], the target named is T1, Recombinant human IKKβ (residues 1-737) (Homo sapiens, UniProt O14920).
T1 construct: Recombinant human IKKβ (residues 1-737); GST (C); made in house
T1 sequence (O14920 1-737): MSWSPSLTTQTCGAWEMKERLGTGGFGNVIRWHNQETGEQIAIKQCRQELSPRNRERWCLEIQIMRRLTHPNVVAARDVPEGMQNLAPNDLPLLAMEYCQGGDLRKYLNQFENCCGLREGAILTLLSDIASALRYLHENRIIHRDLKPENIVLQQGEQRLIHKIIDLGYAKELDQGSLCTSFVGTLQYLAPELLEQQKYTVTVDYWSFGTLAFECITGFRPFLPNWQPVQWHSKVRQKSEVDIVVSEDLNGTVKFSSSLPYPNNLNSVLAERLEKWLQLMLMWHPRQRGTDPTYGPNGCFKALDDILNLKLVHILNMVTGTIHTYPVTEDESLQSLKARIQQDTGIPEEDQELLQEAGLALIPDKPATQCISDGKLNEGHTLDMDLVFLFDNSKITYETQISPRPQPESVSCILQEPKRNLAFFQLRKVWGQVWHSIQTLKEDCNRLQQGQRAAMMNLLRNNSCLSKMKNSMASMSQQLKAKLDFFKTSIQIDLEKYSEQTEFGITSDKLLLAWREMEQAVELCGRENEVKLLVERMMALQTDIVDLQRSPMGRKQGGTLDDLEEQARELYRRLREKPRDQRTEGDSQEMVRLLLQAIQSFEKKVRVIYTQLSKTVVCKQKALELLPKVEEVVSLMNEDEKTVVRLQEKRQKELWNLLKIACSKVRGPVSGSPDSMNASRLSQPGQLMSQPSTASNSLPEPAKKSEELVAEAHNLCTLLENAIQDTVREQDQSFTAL
Nature of the assay: IKK2 assay (TR-FRET). It counts as biochemical. To be noted: ATP 1 μM final, read-out: pIC50 against IKK2 (converted). In a few lines: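 Baculovirus-expressed C-terminal GST-tagged IKKβ (0.5-5 nM final) in HEPES pH 7.4, MgCl2, CHAPS, DTT, BSA with 1.7% DMSO; 25 nM GST-IB substrate and 1 μM ATP, 15 min at room temperature. EDTA stop; phospho-Ser32/36 detected by Eu-antibody/APC-anti-GST TR-FRET, 665/620 nm ratio.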

For the compound `CCS(=O)(=O)N1CCC(c2c[nH]c3c(C(N)=O)cc(-c4csc(CN(C)[C@@H](C)CO)c4)cc23)CC1` [Example 408, 3-[1-(ethylsulfonyl)-4-piperidinyl]-5-(5-{[[(1S)-2-hydroxy-1-methylethyl](methyl)amino]methyl}-3-thienyl)-1H-indole-7-carboxamide trifluoroacetate], the IC50 was at most 1.5 µM in assay [1] and at most 10 µM in assay [2].

On to `CCS(=O)(=O)N1CCC(c2c[nH]c3c(C(N)=O)cc(-c4csc(CN(C)CC5CC5)c4)cc23)CC1` [Example 409, 5-(5-{[(cyclopropylmethyl)(methyl)amino]methyl}-3-thienyl)-3-[1-(ethylsulfonyl)-4-piperidinyl]-1H-indole-7-carboxamide trifluoroacetate], for which the IC50 is at most 1.5 µM in assay [1] and at most 10 µM in assay [2].

As for `CCC(C)(C)N(C)Cc1cc(-c2cc(C(N)=O)c3[nH]cc(C4CCN(S(=O)(=O)CC)CC4)c3c2)cs1` [Example 412, 5-{5-[(1,1-dimethylpropyl)(methyl)amino]methyl}-3-thienyl)-3-[1-(ethylsulfonyl)-4-piperidinyl]-1H-indole-7-carboxamide trifluoroacetate], the IC50 in assay [1] was at most 1.5 µM; in assay [2], at most 10 µM.

Regarding `CCS(=O)(=O)N1CCC(c2c[nH]c3c(C(N)=O)cc(-c4csc(C(C)N(C)CCOC)c4)cc23)CC1` (stereo not shown) [Example 416, 3-[1-(ethylsulfonyl)-4-piperidinyl]-5-[5-(1-{methyl[2-(methyloxy)ethyl]amino}ethyl)-3-thienyl]-1H-indole-7-carboxamide trifluoroacetate], the IC50 is at most 1.5 µM in assay [1] and at most 10 µM in assay [2].

Turning to `CCCN(C)C(C)c1cc(-c2cc(C(N)=O)c3[nH]cc(C4CCN(S(=O)(=O)CC)CC4)c3c2)cs1` (stereo not shown) [Example 417, 3-[1-(ethylsulfonyl)-4-piperidinyl]-5-(5-{1-[methyl(propyl)amino]ethyl}-3-thienyl)-1H-indole-7-carboxamide trifluoroacetate], the results for the IC50 in assay [1] and in assay [2] were at most 1.5 µM and at most 10 µM, respectively.

Turning to `CCS(=O)(=O)N1CCC(c2c[nH]c3c(C(N)=O)cc(-c4ccc5c(c4)CNC5)cc23)CC1` [Example 418, 5-(2,3-dihydro-1H-isoindol-5-yl)-3-[1-(ethylsulfonyl)-4-piperidinyl]-1H-indole-7-carboxamide], the IC50 in assay [1] was at most 1.5 µM; in assay [2], at most 10 µM.

`CCN1Cc2ccc(-c3cc(C(N)=O)c4[nH]cc(C5CCN(S(=O)(=O)CC)CC5)c4c3)cc2C1` [Example 419, 5-(2-ethyl-2,3-dihydro-1H-isoindol-5-yl)-3-[1-(ethylsulfonyl)-4-piperidinyl]-1H-indole-7-carboxamide]: the IC50 was at most 1.5 µM in assay [1] and at most 10 µM in assay [2].

Take `CC(C)S(=O)(=O)N1CCC(c2c[nH]c3c(C(N)=O)cc(-c4csc(CN5CCC[C@@H]5C(N)=O)c4)cc23)CC1` [Example 429, 5-(5-{[(2R)-2-(aminocarbonyl)-1-pyrrolidinyl]methyl}-3-thienyl)-3-[1-[(1-methylethyl)sulfonyl]-4-piperidinyl]-1H-indole-7-carboxamide]: the inhibition at 0.3 µM in assay [1] lay in the range of 0 to 60%. The IC50 in assay [2] was at most 10 µM.

For `CCSCCN(C)Cc1cc(-c2cc(C(N)=O)c3[nH]cc(C4CCN(S(=O)(=O)CC)CC4)c3c2)cs1` [Example 430, 3-[1-(ethylsulfonyl)-4-piperidinyl]-5-(5-{[[2-(ethylthio)ethyl](methyl)amino]methyl}-3-thienyl)-1H-indole-7-carboxamide], the inhibition at 0.3 µM in assay [1] was in the range of 0 to 60%. In assay [2], the IC50 was at most 10 µM.

With `CCS(=O)(=O)N1CCC(c2c[nH]c3c(C(N)=O)cc(-c4csc(CN(C)CCSCCO)c4)cc23)CC1` [Example 431, 3-[1-(ethylsulfonyl)-4-piperidinyl]-5-(5-{[{2-[(2-hydroxyethyl)thio]ethyl}(methyl)amino]methyl}-3-thienyl)-1H-indole-7-carboxamide], the inhibition at 0.3 µM in assay [1] is 0 to 60%. Also, the IC50 in assay [2] was at most 10 µM.

With `CCS(=O)(=O)N1CCC(c2c[nH]c3c(C(N)=O)cc(-c4csc(CN(C)C(CO)CO)c4)cc23)CC1` [Example 432, 3-[1-(ethylsulfonyl)-4-piperidinyl]-5-(5-{[[2-hydroxy-1-(hydroxymethyl)ethyl](methyl)amino]methyl}-3-thienyl)-1H-indole-7-carboxamide], the results for the IC50 in assay [1] and in assay [2] were at most 1.5 µM and at most 10 µM, respectively.

`CCOC(=O)N(C)Cc1cc(-c2cc(C(N)=O)c3[nH]cc(C4CCN(S(=O)(=O)CC)CC4)c3c2)cs1` [Example 433, ethyl[(4-{7-(aminocarbonyl)-3-[1-(ethylsulfonyl)-4-piperidinyl]-1H-indol-5-yl}-2-thienyl)methyl]methylcarbamate]: in assay [1], the inhibition at 0.3 µM was 0 to 60%. For the same compound, in assay [2], the IC50 is at most 10 µM.

As for `CCOC(=O)CN(C)Cc1cc(-c2cc(C(N)=O)c3[nH]cc(C4CCN(S(=O)(=O)CC)CC4)c3c2)cs1` [Example 434, ethyl N-[(4-[7-(aminocarbonyl)-3-[1-(ethylsulfonyl)-4-piperidinyl]-1H-indol-5-yl]-2-thienyl)methyl]-N-methylglycinate], the IC50 in assay [1] was at most 1.5 µM; in assay [2], at most 10 µM.

Consider `CCS(=O)(=O)N1CCC(c2c[nH]c3c(C(N)=O)cc(-c4csc(CN(C)C5CCS(=O)(=O)C5)c4)cc23)CC1` (stereo not shown) [Example 436, 5-(5-{[(1,1-dioxidotetrahydro-3-thienyl)(methyl)amino]methyl}-3-thienyl)-3-[1-(ethylsulfonyl)-4-piperidinyl]-1H-indole-7-carboxamide trifluoroacetate], for which the inhibition at 0.3 µM in assay [1] was 0 to 60%. Moreover, the IC50 in assay [2] is at most 10 µM.
